# Assay results: patent publication US20250026769A1, “PAPD5 INHIBITORS AND METHODS OF USE THEREOF” (The Children's Medical Center Corporation, priority 2021, published 2025)
# Target: T1, rPAPD5 (Homo sapiens, UniProt Q8NDF8)
# T1 construct: made in house
# Test: differential scanning fluorimetry (DSF) binding and stabilization of rPAPD5
# Conditions: 100 μM test compound; shift vs DMSO control; read-out: ΔTm at 100 μM
# Procedure: Binding and stabilization of rPAPD5 by test compounds was determined using differential scanning fluorimetry (DSF). DSF assays were performed to determine protein melting temperature using an indicator dye SYPRO orange (Thermo Fisher Scientific, S6651) diluted 1:5000 in […] of buffer containing […], […] (Jena Biosciences), 25 mM Tris-HCl, 5 mM MgCl2, 50 mM KCl. […] DMSO was used as a negative control. Each curve was an average of three measurements and Thermal Shift software (Thermo Fisher Scientific, 4466038) was used for analysis. […] The change in melting temperature (ΔTm) is in reference to the DMSO control. Referring to Table 2, “+” refers to ΔTm values below 1° C., “++” refers to ΔTm values from 1 to 5° C., and “+++” refers to ΔTm values above 5° C.
# T1 sequence (Q8NDF8 68-698 isoform Q8NDF8-5 limits assumed): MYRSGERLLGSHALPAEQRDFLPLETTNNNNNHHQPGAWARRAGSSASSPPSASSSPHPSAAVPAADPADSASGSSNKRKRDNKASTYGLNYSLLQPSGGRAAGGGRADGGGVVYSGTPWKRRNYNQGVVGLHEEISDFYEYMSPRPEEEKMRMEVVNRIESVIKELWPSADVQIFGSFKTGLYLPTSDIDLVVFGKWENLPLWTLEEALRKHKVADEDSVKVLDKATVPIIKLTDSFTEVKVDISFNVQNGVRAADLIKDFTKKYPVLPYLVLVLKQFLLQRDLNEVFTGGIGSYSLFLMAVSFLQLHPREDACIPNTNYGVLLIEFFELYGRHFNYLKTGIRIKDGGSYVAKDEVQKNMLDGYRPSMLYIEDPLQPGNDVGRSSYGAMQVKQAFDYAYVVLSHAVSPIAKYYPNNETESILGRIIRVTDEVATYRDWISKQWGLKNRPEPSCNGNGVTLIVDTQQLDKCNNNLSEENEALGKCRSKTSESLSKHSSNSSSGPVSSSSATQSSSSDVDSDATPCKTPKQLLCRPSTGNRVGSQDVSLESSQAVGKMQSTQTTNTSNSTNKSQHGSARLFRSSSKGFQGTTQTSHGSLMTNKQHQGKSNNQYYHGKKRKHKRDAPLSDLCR
smiles,measurement,value
"O=C(O)c1ccccc1Nc1c(S(=O)(=O)N2CCOCC2)cnc2ccc(NC3CCOCC3)cc12 [Compound 237A, 2-[[3-morpholinosulfonyl-6-(tetrahydropyran-4-ylamino)-4-quinolyl]amino]benzoic acid]",ΔTm at 100 µM,< 1 °C
"O=C(O)c1ccccc1Nc1c(S(=O)(=O)N2CCOCC2)cnc2ccc(NC3CCC(F)(F)CC3)cc12 [Compound 238A, 2-[[6-[(4,4-difluorocyclohexyl)amino]-3-morpholinosulfonyl-4-quinolyl]amino]benzoic acid]",ΔTm at 100 µM,1 to 5 °C
"O=C(O)c1ccccc1Nc1c(S(=O)(=O)N2CCOCC2)cnc2ccc(NC3CCNCC3)cc12 [Compound 239A, 2-[[3-morpholinosulfonyl-6-(4-piperidylamino)-4-quinolyl]amino]benzoic acid]",ΔTm at 100 µM,1 to 5 °C
"O=C(O)c1ccccc1Nc1c(S(=O)(=O)N2CCOCC2)cnc2ccc(Nc3ccncc3)cc12 [Compound 240A, 2-[[3-morpholinosulfonyl-6-(4-pyridylamino)-4-quinolyl]amino]benzoic acid]",ΔTm at 100 µM,1 to 5 °C
"O=C(O)c1ccccc1Nc1c(S(=O)(=O)N2CCOCC2)cnc2ccc(Nc3ncco3)cc12 [Compound 241A, 2-[[3-morpholinosulfonyl-6-(oxazol-2-ylamino)-4-quinolyl]amino]benzoic acid]",ΔTm at 100 µM,> 5 °C
"O=C(O)c1ccccc1Nc1c(S(=O)(=O)N2CCOCC2)cnc2ccc(Nc3ccc4[nH]cnc4c3)cc12 [Compound 247A, 2-[[6-(1H-benzimidazol-5-ylamino)-3-morpholinosulfonyl-4-quinolyl]amino]benzoic acid]",ΔTm at 100 µM,1 to 5 °C
"O=C(O)c1ccccc1Nc1c(S(=O)(=O)N2CCOCC2)cnc2ccc(N3CCOCC3)cc12 [Compound 248A, 2-[(6-morpholino-3-morpholinosulfonyl-4-quinolyl)amino]benzoic acid]",ΔTm at 100 µM,1 to 5 °C
"NS(=O)(=O)c1ccc2ncc(S(=O)(=O)N3CCOCC3)c(Nc3ccccc3C(=O)O)c2c1 [Compound 249A, 2-[(3-morpholinosulfonyl-6-sulfamoyl-4-quinolyl)amino]benzoic acid]",ΔTm at 100 µM,> 5 °C
"O=C(O)c1ccccc1Nc1c(S(=O)(=O)N2CCOCC2)cnc2ccccc12 [Compound 250A, 2-[(3-morpholinosulfonyl-4-quinolyl)amino]benzoic acid]",ΔTm at 100 µM,> 5 °C
"O=C(O)c1c(Nc2c(S(=O)(=O)N3CCOCC3)cnc3ccc(Cl)cc23)cccc1-c1ncco1 [Compound 261A, 2-[(6-chloro-3-morpholinosulfonyl-4-quinolyl)amino]-6-oxazol-2-yl-benzoic acid]",ΔTm at 100 µM,< 1 °C
"O=C(O)c1cc(B(O)O)ccc1Nc1c(S(=O)(=O)N2CCOCC2)cnc2ccc(Cl)cc12 [Compound 263A, 5-borono-2-[(6-chloro-3-morpholinosulfonyl-4-quinolyl)amino]benzoic acid]",ΔTm at 100 µM,> 5 °C
"O=C(O)c1cc(O)ccc1Nc1c(S(=O)(=O)N2CCOCC2)cnc2ccc(Cl)cc12 [Compound 265A, 2-[(6-chloro-3-morpholinosulfonyl-4-quinolyl)amino]-5-hydroxy-benzoic acid]",ΔTm at 100 µM,> 5 °C
"O=C(O)c1cc(Br)ccc1Nc1c(S(=O)(=O)N2CCOCC2)cnc2ccc(Cl)cc12 [Compound 268A, 5-bromo-2-[(6-chloro-3-morpholinosulfonyl-4-quinolyl)amino]benzoic acid]",ΔTm at 100 µM,< 1 °C
"O=C(O)c1cc(C(F)(F)F)ccc1Nc1c(S(=O)(=O)N2CCOCC2)cnc2ccc(Cl)cc12 [Compound 271A, 2-[(6-chloro-3-morpholinosulfonyl-4-quinolyl)amino]-5-(trifluoromethyl)benzoic acid]",ΔTm at 100 µM,1 to 5 °C
"Cc1ccc(C(=O)O)c(Nc2c(S(=O)(=O)N3CCOCC3)cnc3ccc(Cl)cc23)c1 [Compound 272A, 2-[(6-chloro-3-morpholinosulfonyl-4-quinolyl)amino]-4-methyl-benzoic acid]",ΔTm at 100 µM,> 5 °C
"O=C(O)c1ccc(O)cc1Nc1c(S(=O)(=O)N2CCOCC2)cnc2ccc(Cl)cc12 [Compound 273A, 2-[(6-chloro-3-morpholinosulfonyl-4-quinolyl)amino]-4-hydroxy-benzoic acid]",ΔTm at 100 µM,1 to 5 °C
"O=C(O)c1ccc(Cl)cc1Nc1c(S(=O)(=O)N2CCOCC2)cnc2ccc(Cl)cc12 [Compound 274A, 4-chloro-2-[(6-chloro-3-morpholinosulfonyl-4-quinolyl)amino]benzoic acid]",ΔTm at 100 µM,> 5 °C
"O=C(O)c1ccc(F)cc1Nc1c(S(=O)(=O)N2CCOCC2)cnc2ccc(Cl)cc12 [Compound 275A, 2-[(6-chloro-3-morpholinosulfonyl-4-quinolyl)amino]-4-fluoro-benzoic acid]",ΔTm at 100 µM,> 5 °C
"O=C(O)c1ccc(Br)cc1Nc1c(S(=O)(=O)N2CCOCC2)cnc2ccc(Cl)cc12 [Compound 276A, 4-bromo-2-[(6-chloro-3-morpholinosulfonyl-4-quinolyl)amino]benzoic acid]",ΔTm at 100 µM,> 5 °C
"COc1ccc(C(=O)O)c(Nc2c(S(=O)(=O)N3CCOCC3)cnc3ccc(Cl)cc23)c1 [Compound 277A, 2-[(6-chloro-3-morpholinosulfonyl-4-quinolyl)amino]-4-methoxy-benzoic acid]",ΔTm at 100 µM,> 5 °C
"O=C(O)c1ccc(C(F)(F)F)cc1Nc1c(S(=O)(=O)N2CCOCC2)cnc2ccc(Cl)cc12 [Compound 278A, 2-[(6-chloro-3-morpholinosulfonyl-4-quinolyl)amino]-4-(trifluoromethyl)benzoic acid]",ΔTm at 100 µM,1 to 5 °C
"O=C(O)c1cccc(O)c1Nc1c(S(=O)(=O)N2CCOCC2)cnc2ccc(Cl)cc12 [Compound 279A, 2-[(6-chloro-3-morpholinosulfonyl-4-quinolyl)amino]-3-hydroxy-benzoic acid]",ΔTm at 100 µM,1 to 5 °C
"O=C(O)c1cccc(Cl)c1Nc1c(S(=O)(=O)N2CCOCC2)cnc2ccc(Cl)cc12 [Compound 280A, 3-chloro-2-[(6-chloro-3-morpholinosulfonyl-4-quinolyl)amino]benzoic acid]",ΔTm at 100 µM,> 5 °C
"O=C(O)c1cccc(F)c1Nc1c(S(=O)(=O)N2CCOCC2)cnc2ccc(Cl)cc12 [Compound 281A, 2-[(6-chloro-3-morpholinosulfonyl-4-quinolyl)amino]-3-fluoro-benzoic acid]",ΔTm at 100 µM,> 5 °C
"O=C(O)c1cccc(Br)c1Nc1c(S(=O)(=O)N2CCOCC2)cnc2ccc(Cl)cc12 [Compound 282A, 3-bromo-2-[(6-chloro-3-morpholinosulfonyl-4-quinolyl)amino]benzoic acid]",ΔTm at 100 µM,> 5 °C
"Cc1cccc(C(=O)O)c1Nc1c(S(=O)(=O)N2CCOCC2)cnc2ccc(Cl)cc12 [Compound 283A, 2-[(6-chloro-3-morpholinosulfonyl-4-quinolyl)amino]-3-methyl-benzoic acid]",ΔTm at 100 µM,> 5 °C
"COc1cccc(C(=O)O)c1Nc1c(S(=O)(=O)N2CCOCC2)cnc2ccc(Cl)cc12 [Compound 284A, 2-[(6-chloro-3-morpholinosulfonyl-4-quinolyl)amino]-3-methoxy-benzoic acid]",ΔTm at 100 µM,1 to 5 °C
"O=C(O)c1cccc(C(F)(F)F)c1Nc1c(S(=O)(=O)N2CCOCC2)cnc2ccc(Cl)cc12 [Compound 285A, 2-[(6-chloro-3-morpholinosulfonyl-4-quinolyl)amino]-3-(trifluoromethyl)benzoic acid]",ΔTm at 100 µM,< 1 °C
"O=C(O)c1ccc(B(O)O)cc1Nc1c(S(=O)(=O)N2CCOCC2)cnc2ccc(Cl)cc12 [Compound 289A, 4-borono-2-[(6-chloro-3-morpholinosulfonyl-4-quinolyl)amino]benzoic acid]",ΔTm at 100 µM,> 5 °C
